In patent US11261211B2, “19-NOR neuroactive steroids and methods of use thereof” (Sage Therapeutics, Inc., priority 2013, dated 2022):

Assays:
α4β3δ GABAA receptor = α4β3δ GABAA receptor (Homo sapiens (Human), UniProt P28472+P48169); test: Patch clamp electrophysiology of recombinant α4β3δ GABAA receptors in CHO cells; type: cell-based; conditions: 10 μM compound, GABA EC20 2 μM; for activity at 10 µM: manual patch, read-out: α4β3δ GABA Manual Patch in CHO (Efficacy at 10 μM)
Protocol: (§1) Cellular electrophysiology is used to measure the pharmacological properties of our GABAA receptor modulators in heterologous cell systems. Each compound is tested for its ability to affect GABA mediated currents at a submaximal agonist dose (GABA EC20=2 μM). LTK cells are stably transfected with the α1β2γ2 subunits of the GABA receptor and CHO cells are transiently transfected with the α4β3δ subunits via the Lipofecatamine method. Cells were passaged at a confluence of about 50-80% and then seeded onto 35 mm sterile culture dishes containing 2 ml culture complete medium without antibiotics or antimycotics. Confluent clusters of cells are electrically coupled (Pritchett et al., 1988). Because responses in distant cells are not adequately voltage clamped and because of uncertainties about the extent of coupling (Verdoorn et al., 1990), cells were cultivated at a density that enables the recording of single cells (without visible connections to other cells).
(§2) Whole cell currents were measured with HEKA EPC-10 amplifiers using PatchMaster software or by using the high throughput QPatch platform (Sophion). Bath solution for all experiments contained (in mM): NaCl 137 mM, KCl 4 mM, CaCl2 1.8 mM, MgCl2 1 mM, HEPES 10 mM, D-Glucose 10 mM, pH (NaOH) 7.4. In some cases 0.005% cremophor was also added. Intracellular (pipette) solution contained: KCl 130 mM, MgCl2 1 mM, Mg-ATP 5 mM, HEPES 10 mM, EGTA 5 mM, pH 7.2. During experiments, cells and solutions were maintained at room temperature (19° C.-30° C.). For manual patch clamp recordings, cell culture dishes were placed on the dish holder of the microscope and continuously perfused (1 ml/min) with bath solution. After formation of a Gigaohm seal between the patch electrodes and the cell (pipette resistance range: 2.5 MΩ-6.0 MΩ; seal resistance range: >1 GΩ) the cell membrane across the pipette tip was ruptured to assure electrical access to the cell interior (whole-cell patch-configuration). For experiments using the QPatch system, cells were transferred as suspension to the QPatch system in the bath solution and automated whole cell recordings were performed.
(§3) Cells were voltage clamped at a holding potential of −80 mV. For the analysis of test articles, GABA receptors were stimulated by 2 μM GABA after sequential pre-incubation of increasing concentrations of the test article. Pre-incubation duration was 30 s and the duration of the GABA stimulus was 2 s. Test articles were dissolved in DMSO to form stock solutions (10 mM). Test articles were diluted to 0.01, 0.1, 1, and 10 μM in bath solution. All concentrations of test articles were tested on each cell. The relative percentage potentiation was defined as the peak amplitude in response to GABA EC20 in the presence of the test article divided by the peak amplitude in response to GABA EC20 alone, multiplied by 100.

α1β2γ2 GABAA receptor = α1β2γ2 GABAA receptor (Homo sapiens (Human), UniProt P14867+P47870); test: Patch clamp electrophysiology of recombinant α1β2γ2 GABAA receptors in LTK cells; type: cell-based; conditions: for activity at 10 µM / Emax: LTK; for activity at 10 µM / α1β2γ2 GABA Qpatch in Ltk (Efficacy at 10 μm): 10 μM compound, Qpatch, Ltk cells, GABA EC20 2 μM; for activity at 10 µM: read-out: α1β2γ2 GABA Qpatch in Ltk (Efficacy at 10 μm); for Emax / EC50: potentiation of GABA EC20 (2 μM) current; for Emax: read-out: GABAa alpha1 (α1β2γ2) Emax (%); for EC50: read-out: GABAa alpha1 (α1β2γ2)EC50
Protocol: as §1, §2, §3

| SMILES | activity at 10 µM (α4β3δ GABAA receptor) | activity at 10 µM (α1β2γ2 GABAA receptor) | also measured |
| --- | --- | --- | --- |
| C[C@]12CC[C@H]3[C@@H](CC[C@@H]4C[C@@](O)(CF)CC[C@@H]43)[C@@H]1CC[C@@H]2C(=O)Cn1nc2ccccc2n1 [SA-80] | > 500% | > 500% |  |
| C[C@@]1(O)CC[C@H]2[C@H](CC[C@@H]3[C@@H]2CC[C@]2(C)[C@@H](C(=O)Cn4cc5ncc(Cl)cc5n4)CC[C@@H]32)C1 [SA-26] | 100 to 500% | > 500% |  |
| C[C@@]1(O)CC[C@H]2[C@H](CC[C@@H]3[C@@H]2CC[C@]2(C)[C@@H](C(=O)Cn4cc5cc(F)ccc5n4)CC[C@@H]32)C1 [SA-16] | 100 to 500% | > 500% |  |
| C[C@@]1(O)CC[C@H]2[C@H](CC[C@@H]3[C@@H]2CC[C@]2(C)[C@@H](C(=O)Cn4cc5ncccc5n4)CC[C@@H]32)C1 [SA-4] |  |  | α4β3δ GABA Manual Patch in CHO (Efficacy at 10 μM) (α4β3δ GABAA receptor): B (“B” indicates an efficacy value of >100-500%); α1β2γ2 GABA Qpatch in Ltk (Efficacy at 10 μm) (α1β2γ2 GABAA receptor): C (“C” indicates an efficacy value of >500%); Emax (α1β2γ2 GABAA receptor): 500 to 1000%; EC50 (α1β2γ2 GABAA receptor): 1000 to 2000 nM |
| COC[C@@]1(O)CC[C@H]2[C@H](CC[C@@H]3[C@@H]2CC[C@]2(C)[C@@H](C(=O)Cn4nc5ccncc5n4)CC[C@@H]32)C1 [SA-125] | 100 to 500% | > 500% |  |
| C[C@@]1(O)CC[C@H]2[C@H](CC[C@@H]3[C@@H]2CC[C@]2(C)[C@@H](C(=O)Cn4nc5cccc(Cl)c5n4)CC[C@@H]32)C1 [SA-78] | 100 to 500% | 100 to 500% |  |
| COC[C@@]1(O)CC[C@H]2[C@@H](CC[C@@H]3[C@@H]2CC[C@]2(C)[C@@H](C(=O)Cn4cc5ccncc5n4)CC[C@@H]32)C1 [SB-45] | 100 to 500% | 100 to 500% |  |
| C[C@@]1(O)CC[C@H]2[C@H](CC[C@@H]3[C@@H]2CC[C@]2(C)[C@@H](C(=O)Cn4cc5ccc(F)cc5n4)CC[C@@H]32)C1 [SA-22] | 100 to 500% | > 500% |  |
| C[C@@]1(O)CC[C@H]2[C@@H](CC[C@@H]3[C@@H]2CC[C@]2(C)[C@@H](C(=O)Cn4cc5ccncc5n4)CC[C@@H]32)C1 [SB-9] |  |  | α4β3δ GABA Manual Patch in CHO (Efficacy at 10 μM) (α4β3δ GABAA receptor): B (“B” indicates an efficacy value of >100-500%); α1β2γ2 GABA Qpatch in Ltk (Efficacy at 10 μm) (α1β2γ2 GABAA receptor): C (“C” indicates an efficacy value of >500%) |
| C[C@]12CC[C@H]3[C@@H](CC[C@@H]4C[C@@](O)(CF)CC[C@@H]43)[C@@H]1CC[C@@H]2C(=O)Cn1cc2ncccc2n1 [SA-83] | 100 to 500% | 100 to 500% |  |
| C[C@@]1(O)CC[C@H]2[C@H](CC[C@@H]3[C@@H]2CC[C@]2(C)[C@@H](C(=O)Cn4nc5cccc(F)c5n4)CC[C@@H]32)C1 [SA-66] | > 500% | > 500% |  |
| C[C@@]1(O)CC[C@H]2[C@H](CC[C@@H]3[C@@H]2CC[C@]2(C)[C@@H](C(=O)Cn4cc5nccnc5n4)CC[C@@H]32)C1 [SA-28] | 100 to 500% | 100 to 500% |  |
| C[C@@]1(O)CC[C@H]2[C@H](CC[C@@H]3[C@@H]2CC[C@]2(C)[C@@H](C(=O)Cn4nc5ccc(Cl)cc5n4)CC[C@@H]32)C1 [SA-41] | 100 to 500% | > 500% |  |
| C[C@@]1(O)CC[C@H]2[C@H](CC[C@@H]3[C@@H]2CC[C@]2(C)[C@@H](C(=O)Cn4nc5ccc(F)cc5n4)CC[C@@H]32)C1 [SA-63] | 100 to 500% |  |  |
| Cc1cc2cnn(CC(=O)[C@H]3CC[C@H]4[C@@H]5CC[C@@H]6C[C@](C)(O)CC[C@@H]6[C@H]5CC[C@]34C)c2cn1 [SA-25] |  | > 500% |  |
| C[C@@]1(O)CC[C@H]2[C@H](CC[C@@H]3[C@@H]2CC[C@]2(C)[C@@H](C(=O)Cn4ncc5ccc(F)cc54)CC[C@@H]32)C1 [SA-23] |  | > 500% |  |
| CC[C@@]1(O)CC[C@H]2[C@@H](CC[C@@H]3[C@@H]2CC[C@]2(C)[C@@H](C(=O)Cn4nnc5ccccc54)CC[C@@H]32)C1 [SB-35] |  | 10 to 100% |  |
| CC[C@@]1(O)CC[C@H]2[C@H](CC[C@@H]3[C@@H]2CC[C@]2(C)[C@@H](C(=O)Cn4nc5ccncc5n4)CC[C@@H]32)C1 [SA-114] |  | > 500% |  |

| SMILES | activity at 10 µM (α4β3δ GABAA receptor) | activity at 10 µM (α1β2γ2 GABAA receptor) | also measured |
| --- | --- | --- | --- |
| Cc1ccc2c(c1)nnn2CC(=O)[C@H]1CC[C@H]2[C@@H]3CC[C@@H]4C[C@](C)(O)CC[C@@H]4[C@H]3CC[C@]12C [SA-43] |  | 100 to 500% |  |
| C[C@@]1(O)CC[C@H]2[C@H](CC[C@@H]3[C@@H]2CC[C@]2(C)[C@@H](C(=O)Cn4nc5ccc(OC(F)(F)F)cc5n4)CC[C@@H]32)C1 [SA-72] |  | > 500% |  |
| COc1cccc2nnn(CC(=O)[C@H]3CC[C@H]4[C@@H]5CC[C@@H]6C[C@](C)(O)CC[C@@H]6[C@H]5CC[C@]34C)c12 [SA-73] |  | 100 to 500% |  |
| C[C@@]1(O)CC[C@H]2[C@H](CC[C@@H]3[C@@H]2CC[C@]2(C)[C@@H](C(=O)Cn4ncc5ncccc54)CC[C@@H]32)C1 [SA-3] |  |  | α1β2γ2 GABA Qpatch in Ltk (Efficacy at 10 μm) (α1β2γ2 GABAA receptor): C (“C” indicates an efficacy value of >500%); Emax (α1β2γ2 GABAA receptor): 500 to 1000%; EC50 (α1β2γ2 GABAA receptor): 1000 to 2000 nM |
| C[C@]12CC[C@H]3[C@@H](CC[C@H]4C[C@@](O)(CF)CC[C@@H]43)[C@@H]1CC[C@@H]2C(=O)Cn1cc2ncccc2n1 [SB-16] |  | 100 to 500% |  |
| COc1ccc2nnn(CC(=O)[C@H]3CC[C@H]4[C@@H]5CC[C@H]6C[C@@](O)(CF)CC[C@@H]6[C@H]5CC[C@]34C)c2c1 [SG-22] |  | 100 to 500% |  |
| CCOC[C@@]1(O)CC[C@H]2[C@@H](CC[C@@H]3[C@@H]2CC[C@]2(C)[C@@H](C(=O)Cn4nc5ccccc5n4)CC[C@@H]32)C1 [SB-53] |  | 10 to 100% |  |
| COc1ccc2nn(CC(=O)[C@H]3CC[C@H]4[C@@H]5CC[C@@H]6C[C@](C)(O)CC[C@@H]6[C@H]5CC[C@]34C)nc2c1 [SA-47] |  | > 500% |  |
| CC[C@@]1(O)CC[C@H]2[C@H](CC[C@@H]3[C@@H]2CC[C@]2(C)[C@@H](C(=O)Cn4nnc5ccncc54)CC[C@@H]32)C1 [SA-113] |  | 100 to 500% |  |
| C[C@@]1(O)CC[C@H]2[C@H](CC[C@@H]3[C@@H]2CC[C@]2(C)[C@@H](C(=O)Cn4nnc5ncccc54)CC[C@@H]32)C1 [SA-13] |  | > 500% |  |
| COc1ccc2c(c1)nnn2CC(=O)[C@H]1CC[C@H]2[C@@H]3CC[C@H]4C[C@@](O)(CF)CC[C@@H]4[C@H]3CC[C@]12C [SG-23] |  | 10 to 100% |  |
| C[C@]12CC[C@H]3[C@@H](CC[C@@H]4C[C@@](O)(C(F)F)CC[C@@H]43)[C@@H]1CC[C@@H]2C(=O)Cn1nc2ccc(F)cc2n1 [SA-104] |  | 100 to 500% |  |
| CC[C@@]1(O)CC[C@H]2[C@@H](CC[C@@H]3[C@@H]2CC[C@]2(C)[C@@H](C(=O)Cn4ncc5ccncc54)CC[C@@H]32)C1 [SB-32] |  | 100 to 500% |  |
| COC[C@@]1(O)CC[C@H]2[C@@H](CC[C@@H]3[C@@H]2CC[C@]2(C)[C@@H](C(=O)Cn4nnc5cnccc54)CC[C@@H]32)C1 [SB-43] |  | 100 to 500% |  |
| C[C@@]1(O)CC[C@H]2[C@H](CC[C@@H]3[C@@H]2CC[C@]2(C)[C@@H](C(=O)Cn4ncc5cnccc54)CC[C@@H]32)C1 [SA-9] |  |  | α1β2γ2 GABA Qpatch in Ltk (Efficacy at 10 μm) (α1β2γ2 GABAA receptor): B (“B” indicates an efficacy value of >100-500%) |
| CCOC[C@@]1(O)CC[C@H]2[C@@H](CC[C@@H]3[C@@H]2CC[C@]2(C)[C@@H](C(=O)Cn4nc5ccc(F)cc5n4)CC[C@@H]32)C1 [SB-60] |  | 10 to 100% |  |
| CC[C@@]1(O)CC[C@H]2[C@H](CC[C@@H]3[C@@H]2CC[C@]2(C)[C@@H](C(=O)Cn4cc5ncccc5n4)CC[C@@H]32)C1 [SA-110] |  | > 500% |  |
| COc1ccc2nn(CC(=O)[C@H]3CC[C@H]4[C@@H]5CC[C@@H]6C[C@](C)(O)CC[C@@H]6[C@H]5CC[C@]34C)nc2c1 [SA-49] | > 500% |  |  |
